In patent US12281126B2, “Inhibitors of cyclin-dependent kinase 7 and uses thereof” (Dana-Farber Cancer Institute, Inc., priority 2018, dated 2025):

Key:
Assay type in all cases: biochemical
[1] = molecular target: CDK7 (Homo sapiens (Human), UniProt P50613); test: Invitrogen CDK7 assay, inhibition of CDK7; conditions: co-factors cyclin H and MNAT1; read-out: IC50 against CDK7
Protocol: (§1) Compounds of the disclosure were assayed using Invitrogen CDK7 assay against a variety of kinases. Exemplary results are presented as IC50 values (see Table 1 and Table 2). The co-factors used for each kinase in the assays were as follows: CDK7: cyclin H and MNAT1; CDK2: cyclin A; CDK9: cyclin T1.

[2] = molecular target: CDK9 (Homo sapiens (Human), UniProt P50750); test: Invitrogen kinase assay, inhibition of CDK9; conditions: co-factor cyclin T1; read-out: IC50 against CDK9
Protocol: as §1

[3] = molecular target: CDK2 (Homo sapiens (Human), UniProt P24941); test: Invitrogen kinase assay, inhibition of CDK2; conditions: co-factor cyclin A; read-out: IC50 against CDK2
Protocol: as §1

CDK9, sequence (P50750 whole entry): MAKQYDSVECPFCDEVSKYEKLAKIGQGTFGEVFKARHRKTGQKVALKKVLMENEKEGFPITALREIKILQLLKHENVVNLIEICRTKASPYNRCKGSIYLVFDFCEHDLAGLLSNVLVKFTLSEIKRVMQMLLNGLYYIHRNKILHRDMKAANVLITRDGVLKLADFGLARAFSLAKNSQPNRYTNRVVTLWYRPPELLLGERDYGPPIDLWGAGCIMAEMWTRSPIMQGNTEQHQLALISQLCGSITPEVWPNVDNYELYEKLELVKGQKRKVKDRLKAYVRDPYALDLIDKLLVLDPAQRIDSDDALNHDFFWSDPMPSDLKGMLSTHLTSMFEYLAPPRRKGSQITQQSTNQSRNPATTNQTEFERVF
CDK9, sequence (O60563 whole entry partner): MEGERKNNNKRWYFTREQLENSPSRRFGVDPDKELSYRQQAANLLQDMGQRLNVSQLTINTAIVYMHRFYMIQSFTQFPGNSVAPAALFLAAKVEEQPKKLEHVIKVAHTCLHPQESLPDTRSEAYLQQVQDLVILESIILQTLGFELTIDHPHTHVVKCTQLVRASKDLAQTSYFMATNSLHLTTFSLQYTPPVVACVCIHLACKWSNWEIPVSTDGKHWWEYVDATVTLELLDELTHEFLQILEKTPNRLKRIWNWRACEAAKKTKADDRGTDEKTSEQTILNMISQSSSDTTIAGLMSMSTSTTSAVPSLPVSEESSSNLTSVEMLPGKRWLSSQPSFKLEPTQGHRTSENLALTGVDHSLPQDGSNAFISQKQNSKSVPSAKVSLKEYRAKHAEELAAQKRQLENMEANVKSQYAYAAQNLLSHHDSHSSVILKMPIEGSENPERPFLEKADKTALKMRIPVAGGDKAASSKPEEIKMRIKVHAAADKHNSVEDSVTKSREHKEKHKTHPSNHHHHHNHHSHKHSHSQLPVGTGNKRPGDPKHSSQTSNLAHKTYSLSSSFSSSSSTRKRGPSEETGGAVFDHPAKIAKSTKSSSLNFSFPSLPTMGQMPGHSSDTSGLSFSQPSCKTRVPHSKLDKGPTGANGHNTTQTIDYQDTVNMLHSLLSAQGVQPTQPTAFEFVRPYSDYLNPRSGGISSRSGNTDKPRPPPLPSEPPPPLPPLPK
CDK7, sequence (P50613 whole entry): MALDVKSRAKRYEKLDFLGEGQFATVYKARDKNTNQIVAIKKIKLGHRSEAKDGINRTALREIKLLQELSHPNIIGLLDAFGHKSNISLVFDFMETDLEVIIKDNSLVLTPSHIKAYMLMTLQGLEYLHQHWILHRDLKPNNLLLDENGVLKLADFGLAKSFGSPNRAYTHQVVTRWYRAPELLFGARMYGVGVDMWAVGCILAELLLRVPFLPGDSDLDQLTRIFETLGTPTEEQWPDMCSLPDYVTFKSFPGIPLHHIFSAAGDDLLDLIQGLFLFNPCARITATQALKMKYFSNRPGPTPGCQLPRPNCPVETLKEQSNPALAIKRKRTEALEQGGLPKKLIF
CDK7, sequence (P51946 whole entry partner): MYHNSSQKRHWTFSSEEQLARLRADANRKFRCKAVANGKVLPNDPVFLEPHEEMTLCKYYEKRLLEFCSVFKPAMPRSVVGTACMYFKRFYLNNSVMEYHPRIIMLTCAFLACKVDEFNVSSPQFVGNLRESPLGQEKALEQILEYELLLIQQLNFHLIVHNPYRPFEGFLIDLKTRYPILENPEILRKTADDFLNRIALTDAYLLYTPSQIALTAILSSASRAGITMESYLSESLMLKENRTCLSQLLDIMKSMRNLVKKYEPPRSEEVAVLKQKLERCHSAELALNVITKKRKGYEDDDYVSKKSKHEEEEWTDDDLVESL
CDK7, sequence (P51948 whole entry partner): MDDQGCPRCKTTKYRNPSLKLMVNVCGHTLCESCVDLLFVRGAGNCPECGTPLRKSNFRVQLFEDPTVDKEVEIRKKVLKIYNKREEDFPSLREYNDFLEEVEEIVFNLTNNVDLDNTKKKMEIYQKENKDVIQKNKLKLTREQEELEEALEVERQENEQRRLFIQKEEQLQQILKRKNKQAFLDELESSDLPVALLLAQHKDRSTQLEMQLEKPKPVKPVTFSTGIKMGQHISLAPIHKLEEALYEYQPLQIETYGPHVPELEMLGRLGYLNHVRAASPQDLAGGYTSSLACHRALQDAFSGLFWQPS

IC50 [1] [nM] | IC50 [2] [nM] | IC50 [3] [nM] | SMILES
61.1 | > 10000 | > 10000 | C=CC(=O)Nc1ccc(C(=O)Nc2n[nH]c3c2CN(C(=O)NC2(CN(C)C)CC2)C3(C)C)cc1 [Compound 065, 3-(4-acrylamidobenzamido)-N-(1-((dimethylamino)methyl)cyclopropyl)-6,6-dimethyl-4,6-dihydropyrrolo[3,4-c]pyrazole-5(1H)carboxamide]
190 | 1060 | > 10000 | C=CC(=O)Nc1ccc(C(=O)Nc2n[nH]c3c2CN(C(=O)NC(CN(C)C)C2CCOC2)C3(C)C)cc1 (stereo not drawn) [Compound 079, 3-(4-acrylamidobenzamido)-N-(2-(dimethylamino)-1-(tetrahydrofuran-3-yl)ethyl)-6,6-dimethyl-4,6-dihydropyrrolo[3,4-c]pyrazole-5(1H)-carboxamide]
18.5 | > 10000 | > 10000 | Cc1nc(Nc2n[nH]c3c2CN(C(=O)N[C@H](CN(C)C)C2CCOCC2)C3(C)C)c2ccsc2n1 [Compound 200, (S)—N-(2-(dimethylamino)-1-(tetrahydro-2H-pyran-4-yl)ethyl)-6,6-dimethyl-3-((2-methylthieno[2,3-d]pyrimidin-4-yl)amino)-4,6-dihydropyrrolo[3,4-c]pyrazole-5(1H)-carboxamide]
39.1 | > 10000 | > 10000 | Cc1nc(Nc2n[nH]c3c2CN(C(=O)N[C@H](CN(C)C)C2CCOCC2)C3(C)C)c2sccc2n1 [Compound 201, (S)—N-(2-(dimethylamino)-1-(tetrahydro-2H-pyran-4-yl)ethyl)-6,6-dimethyl-3-((2-methylthieno[3,2-d]pyrimidin-4-yl)amino)-4,6-dihydropyrrolo[3,4-c]pyrazole-5(1H)-carboxamide]
69 | > 10000 | > 1110 | C=CC(=O)Nc1ccc2c(Nc3n[nH]c4c3CN(C(=O)N[C@H](CN(C)C)C3CCOCC3)C4(C)C)nccc2c1 [Compound 202, (S)-3-((6-acrylamidoisoquinolin-1-yl)amino)-N-(2-(dimethylamino)-1-(tetrahydro-2H-pyran-4-yl)ethyl)-6,6-dimethyl-4,6-dihydropyrrolo[3,4-c]pyrazole-5(1H)-carboxamide]
214 | > 10000 | > 10000 | C=CC(=O)Nc1cccc2c(Nc3n[nH]c4c3CN(C(=O)N[C@H](CN(C)C)C3CCOCC3)C4(C)C)nccc12 [Compound 203, (S)-3-((5-acrylamidoisoquinolin-1-yl)amino)-N-(2-(dimethylamino)-1-(tetrahydro-2H-pyran-4-yl)ethyl)-6,6-dimethyl-4,6-dihydropyrrolo[3,4-c]pyrazole-5(1H)-carboxamide]
407 | > 10000 | > 10000 | C=CC(=O)Nc1ccc(Nc2n[nH]c3c2CN(C(=O)N[C@H](CN(C)C)C2CCOCC2)C3(C)C)nc1 [Compound 204, (S)-3-((5-acrylamidopyridin-2-yl)amino)-N-(2-(dimethylamino)-1-(tetrahydro-2H-pyran-4-yl)ethyl)-6,6-dimethyl-4,6-dihydropyrrolo[3,4-c]pyrazole-5(1H)-carboxamide]
12.8 | 4010 | > 370 | C=CC(=O)Nc1ccc(C(=O)Nc2n[nH]c3c2CN(C(=O)N[C@H](CN(C)C)C2CCOCC2)C3(C)C)cc1 [Compound 205, (S)-3-(4-acrylamidobenzamido)-N-(2-(dimethylamino)-1-(tetrahydro-2H-pyran-4-yl)ethyl)-6,6-dimethyl-4,6-dihydropyrrolo[3,4-c]pyrazole-5(1H)-carboxamide]
732 | > 10000 | > 10000 | C=CC(=O)Nc1cnc(Nc2n[nH]c3c2CN(C(=O)N[C@H](CN(C)C)C2CCOCC2)C3(C)C)nc1 [Compound 206, (S)-3-((5-acrylamidopyrimidin-2-yl)amino)-N-(2-(dimethylamino)-1-(tetrahydro-2H-pyran-4-yl)ethyl)-6,6-dimethyl-4,6-dihydropyrrolo[3,4-c]pyrazole-5(1H)-carboxamide]
15.4 | > 10000 | 3410 | C=CC(=O)Nc1ccc(C(=O)Nc2n[nH]c3c2CN(C(=O)NC2CN(C)Cc4ccccc42)C3(C)C)cc1 (stereo not drawn) [Compound 207, 3-(4-acrylamidobenzamido)-6,6-dimethyl-N-(2-methyl-1,2,3,4-tetrahydroisoquinolin-4-yl)-4,6-dihydropyrrolo[3,4-c]pyrazole-5(1H)-carboxamide]
10.8 | > 10000 | 4520 | CN(C)C[C@@H](NC(=O)N1Cc2c(Nc3ccnc(C(F)(F)F)n3)n[nH]c2C1(C)C)C1CCOCC1 [Compound 208, (S)—N-(2-(dimethylamino)-1-(tetrahydro-2H-pyran-4-yl)ethyl)-6,6-dimethyl-3-((2-(trifluoromethyl)pyrimidin-4-yl)amino)-4,6-dihydropyrrolo[3,4-c]pyrazole-5(1H)-carboxamide]
3310 | > 10000 | > 10000 | C=CC(=O)Nc1ccc(Nc2n[nH]c3c2CN(C(=O)N[C@H](CN(C)C)C2CCOCC2)C3(C)C)cc1 [Compound 209, (S)-3-((4-acrylamidophenyl)amino)-N-(2-(dimethylamino)-1-(tetrahydro-2H-pyran-4-yl)ethyl)-6,6-dimethyl-4,6-dihydropyrrolo[3,4-c]pyrazole-5(1H)-carboxamide]
48.4 | 1740 | 161 | C=CC(=O)Nc1ccc(C(=O)Nc2n[nH]c3c2CN(C(=O)N[C@H]2CCCN(C)C2)C3(C)C)cc1 [Compound 210, (S)-3-(4-acrylamidobenzamido)-6,6-dimethyl-N-(1-methylpiperidin-3-yl)-4,6-dihydropyrrolo[3,4-c]pyrazole-5(1H)-carboxamide]
